# Reference: US20060112494A1, “Method of protecting an animal skin product from metalloproteinase activity” (priority 2004, published 2006)
# Where two headings read alike, the source gives them in different places.
# Columns and labels:
# [1] = system: mixed bacteria on fresh hide samples; parameters: Growth/Days 2 / Growth/Days 4: key to the marks not given beside the values; details: for Growth/Days 1: day 1; for Growth/Days 2: day 2; for Growth/Days 4: day 4;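 as to all read-outs here: fresh hide pieces laid on inhibitor-containing nutrient agar supplemented with 0.5% Azocoll, incubated at 30 °C, then scored for growth of bacteria originating from the hide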
# [2] = system: collagenase; details: for Collagenase Activity/Days 1: day 1; for Collagenase Activity/Days 2: day 2; for Collagenase Activity/Days 7: day 7;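 as to Collagenase Activity/Days 4: nutrient agar containing 0.5% Azocoll with inhibitor, topped by a fresh hide piece, kept at 30 °C, collagenase from hide bacteria scored visually as clearing zone around growth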
# Method: Nutrient agar amended with 0.5% AZOCOLL was used as the test medium to study collagenase activity. The nutrient agar was prepared and autoclaved and then was cooled to 55° C. Azocol was added to give a final concentration of 0.5%. […] Fresh hides were obtained from a tannery and were cut into pieces of approximately 2 cm square. One 2×2 cm hide sample was placed on top of the agar containing the inhibitors. Treated samples were incubated at 30° C. and evaluated after 24 hours, 2 days, 3 or 4 days and 7 days for collagenase activity and also for the growth of the bacteria. The bacteria from the hides secreted collagenase into the medium as they grew to degrade the collagen in the azocoll medium and collagenase activity was determined by visual inspection of the clear zone around the bacteria
# [3] = system: collagenase; details: for Collagenase Activity/Days 1: day 1; for Collagenase Activity/Days 2: day 2; for Collagenase Activity/Days 7: day 7; remark: listed apart in the source;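 as to Collagenase Activity/Days 4: nutrient agar containing 0.5% Azocoll with inhibitor, topped by a fresh hide piece, kept at 30 °C, collagenase from hide bacteria scored visually as clearing zone around growth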
# [4] = system: Pseudomonas fluorescens; details: for Growth/Days 1: day 1; for Growth/Days 2: day 2; for Growth/Days 7: day 7
# Method: (§1) Nutrient agar amended with Azocoll (a substrate made up of insoluble particles of collagen impregnated with a bright azo dye) was used as the test medium to study collagenase activity. The nutrient agar was prepared and autoclaved and then was cooled to 55° C. Azocol was added to give a final concentration of 0.5%. […] Using a sterile spatula or cork-borer, the middle portion of each plate of about the size of a United States quarter, was scooped out. Fresh nutrient agar-azocoll medium containing no inhibitor was added to replace the scooped out portion of the plate. […] The bacteria were grown overnight on nutrient agar. A suspension of each culture was made in sterile water and used to inoculate the middle portion of each plate. The treated samples were incubated at 30° C. and evaluated after 24 hours, 2 days and 7 days for collagenase activity and also for the growth of the bacteria. The test cultures secreted collagenase into the medium as they grew to degrade the collagen in the azocoll medium, and collagenase activity was determined by visual inspection of the clear zone around the bacteria. All % are by weight percent of the active ingredient.
# [5] = system: Aeromonas salmonicida; parameters: key to the marks not given beside the values; details: for Growth/Days 1: day 1; for Growth/Days 2: day 2; for Growth/Days 7: day 7
# Method: as §1
# [6] = system: collagenase; details: for Collagenase Activity/Days 1: day 1; for Collagenase Activity/Days 2: day 2; for Collagenase Activity/Days 7: day 7; remark: listed apart in the source;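 as to Collagenase Activity/Days 4: nutrient agar containing 0.5% Azocoll with inhibitor, topped by a fresh hide piece, kept at 30 °C, collagenase from hide bacteria scored visually as clearing zone around growth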
smiles,measurement,setting,value
"O=C(O)CN(CCOCCOCCN(CC(=O)O)CC(=O)O)CC(=O)O [Na4EGTA, ethylene glycol-bis(β-aminoethylether)-N,N,N′N′-tetraacetic acid]",Growth/Days 1,[1]; Conc. 0.025%,++++
same,Growth/Days 2,[1]; Conc. 0.025%,++++
same,Growth/Days 4,[1]; Conc. 0.025%,++++
same,Growth/Days 1,[1]; Conc. 0.05%,++++
same,Growth/Days 2,[1]; Conc. 0.05%,++++
same,Growth/Days 4,[1]; Conc. 0.05%,++++
same,Growth/Days 1,[1]; Conc. 0.075%,++++
same,Growth/Days 2,[1]; Conc. 0.075%,++++
same,Growth/Days 4,[1]; Conc. 0.075%,++++
same,Growth/Days 1,[1]; Conc. 0.1%,++++
same,Growth/Days 2,[1]; Conc. 0.1%,++++
same,Growth/Days 4,[1]; Conc. 0.1%,++++
same,Growth/Days 1,[1]; Conc. 0.2%,++++
same,Growth/Days 2,[1]; Conc. 0.2%,++++
same,Growth/Days 4,[1]; Conc. 0.2%,++++
same,Growth/Days 1,[1]; Conc. 0.3%,++++
same,Growth/Days 2,[1]; Conc. 0.3%,++++
same,Growth/Days 4,[1]; Conc. 0.3%,++++
same,Growth/Days 1,[1]; Conc. 0.4%,+++
same,Growth/Days 2,[1]; Conc. 0.4%,++++
same,Growth/Days 4,[1]; Conc. 0.4%,++++
same,Growth/Days 1,[1]; Conc. 0.5%,+++
same,Growth/Days 2,[1]; Conc. 0.5%,++++
same,Growth/Days 4,[1]; Conc. 0.5%,++++
same,Collagenase Activity/Days 1,[2]; Conc. 0.025%,++++
same,Collagenase Activity/Days 2,[2]; Conc. 0.025%,++++
same,Collagenase Activity/Days 4,"[2]; Conc. 0.025%, day 4",++++
same,Collagenase Activity/Days 7,[2]; Conc. 0.025%,++++
same,Collagenase Activity/Days 4,"[2]; Conc. 0.05%, day 4",++++
same,Collagenase Activity/Days 1,[2]; Conc. 0.075%,0
same,Collagenase Activity/Days 4,"[2]; Conc. 0.075%, day 4",++++
same,Collagenase Activity/Days 1,[2]; Conc. 0.1%,0
same,Collagenase Activity/Days 2,[2]; Conc. 0.1%,0
same,Collagenase Activity/Days 4,"[2]; Conc. 0.1%, day 4",+
same,Collagenase Activity/Days 1,[2]; Conc. 0.2%,0
same,Collagenase Activity/Days 2,[2]; Conc. 0.2%,0
same,Collagenase Activity/Days 4,"[2]; Conc. 0.2%, day 4",+
same,Collagenase Activity/Days 1,[2]; Conc. 0.3%,0
same,Collagenase Activity/Days 2,[2]; Conc. 0.3%,0
same,Collagenase Activity/Days 4,"[2]; Conc. 0.3%, day 4",+
same,Collagenase Activity/Days 1,[2]; Conc. 0.4%,0
same,Collagenase Activity/Days 2,[2]; Conc. 0.4%,0
same,Collagenase Activity/Days 4,"[2]; Conc. 0.4%, day 4",0
same,Collagenase Activity/Days 4,"[2]; Conc. 0.5%, column day 4, footnote **: data collected on Day 3",0**
same,Collagenase Activity/Days 1,[2]; Conc. 0.5%,0
same,Collagenase Activity/Days 2,[2]; Conc. 0.5%,0
same,Collagenase Activity/Days 7,[2]; Conc. 0.5%,0
same,performance as collagenase inhibitors (summary in words),[2]; collagenase produced by the mixed culture of bacteria from the hides,performed very well as collagenase inhibitors
same,Collagenase Activity/Days 1,[3]; Conc. 0.1%,0
same,Collagenase Activity/Days 2,[3]; Conc. 0.1%,0
same,Collagenase Activity/Days 1,[3]; Conc. 0.25%,0
same,Collagenase Activity/Days 2,[3]; Conc. 0.25%,0
same,Collagenase Activity/Days 7,[3]; Conc. 0.25%,0
same,Collagenase Activity/Days 1,[3]; Conc. 0.5%,0
same,Collagenase Activity/Days 2,[3]; Conc. 0.5%,0
same,Collagenase Activity/Days 7,[3]; Conc. 0.5%,0
same,performance as collagenase inhibitors (summary in words),"[3]; collagenase produced by the bacteria studied, Table 2",performed very well as collagenase inhibitors
same,Growth/Days 1,[4]; Conc. 0.025%,++++
same,Growth/Days 2,[4]; Conc. 0.025%,++++
same,Growth/Days 7,[4]; Conc. 0.025%,++++
same,Growth/Days 1,[4]; Conc. 0.05%,++++
same,Growth/Days 2,[4]; Conc. 0.05%,++++
same,Growth/Days 7,[4]; Conc. 0.05%,++++
same,Growth/Days 1,[4]; Conc. 0.075%,++++
same,Growth/Days 2,[4]; Conc. 0.075%,++++
same,Growth/Days 7,[4]; Conc. 0.075%,++++
same,Growth/Days 1,[4]; Conc. 0.1%,++++
same,Growth/Days 2,[4]; Conc. 0.1%,++++
same,Growth/Days 7,[4]; Conc. 0.1%,++++
same,Growth/Days 1,[4]; Conc. 0.2%,++++
same,Growth/Days 2,[4]; Conc. 0.2%,++++
same,Growth/Days 7,[4]; Conc. 0.2%,++++
same,Growth/Days 1,[4]; Conc. 0.3%,++++
same,Growth/Days 2,[4]; Conc. 0.3%,++++
same,Growth/Days 7,[4]; Conc. 0.3%,++++
same,Growth/Days 1,[4]; Conc. 0.4%,++++
same,Growth/Days 2,[4]; Conc. 0.4%,++++
same,Growth/Days 7,[4]; Conc. 0.4%,++++
same,Growth/Days 1,[4]; Conc. 0.5%,++++
same,Growth/Days 2,[4]; Conc. 0.5%,++++
same,Growth/Days 7,[4]; Conc. 0.5%,++++
same,Growth/Days 1,[5]; Conc. 0.1%,++++
same,Growth/Days 2,[5]; Conc. 0.1%,++++
same,Growth/Days 7,[5]; Conc. 0.1%,++++
same,Growth/Days 1,[5]; Conc. 0.25%,++++
same,Growth/Days 2,[5]; Conc. 0.25%,++++
same,Growth/Days 7,[5]; Conc. 0.25%,++++
same,Growth/Days 1,[5]; Conc. 0.5%,++++
same,Growth/Days 2,[5]; Conc. 0.5%,++++
same,Growth/Days 7,[5]; Conc. 0.5%,++++
same,Collagenase Activity/Days 1,[6]; Conc. 0.025%,++++
same,Collagenase Activity/Days 2,[6]; Conc. 0.025%,++++
same,Collagenase Activity/Days 7,[6]; Conc. 0.025%,++++
same,Collagenase Activity/Days 1,[6]; Conc. 0.075%,0
same,Collagenase Activity/Days 1,[6]; Conc. 0.1%,0
same,Collagenase Activity/Days 2,[6]; Conc. 0.1%,0
same,Collagenase Activity/Days 1,[6]; Conc. 0.2%,0
same,Collagenase Activity/Days 2,[6]; Conc. 0.2%,0
same,Collagenase Activity/Days 1,[6]; Conc. 0.3%,0
same,Collagenase Activity/Days 2,[6]; Conc. 0.3%,0
same,Collagenase Activity/Days 1,[6]; Conc. 0.4%,0
same,Collagenase Activity/Days 2,[6]; Conc. 0.4%,0
same,Collagenase Activity/Days 1,[6]; Conc. 0.5%,0
same,Collagenase Activity/Days 2,[6]; Conc. 0.5%,0
same,Collagenase Activity/Days 7,[6]; Conc. 0.5%,0
same,performance as collagenase inhibitors (summary in words),"[6]; collagenase produced by the bacteria studied, Table 1",performed very well as collagenase inhibitors
